Source: patent US7141541B1, “Use of peptides” (University Court of the University of Dundee, priority 1999, dated 2006)
Where no end group is shown, it is not given here.

Legend:
[1] = biological target: recombinant human eIF4E (Homo sapiens, UniProt P06730); experiment: in vitro binding (pull-down) assay with eIF4E; details: FIG. 4, FIG. 5
Protocol: (§1) Sequences of biotinylated, penetratin-linked peptides. U=Norvaline, a substitution for cysteine. Conserved residues that are important in binding to eIF4E are underlined. b). In vitro binding assay. i) 1 μg recombinant eIF4E was incubated with 0.2 mM biotinylated peptides in a total volume of 50 μl wash buffer (1×PBS/250 mM Kcl) for 1 h at 4° C. ii) 0.2 mM Hu4G or Hu4G YLL-AAA was incubated with 200 μg MRC5 cell lysate for 1 h at 4° C. in a total volume of 50 μl wash buffer. In all cases the biotinylated peptides and associated proteins were pulled down using streptavidin agarose. The proteins were separated by SDS PAGE and subjected to Western blotting using anti-eIF4E antibody. Detection was by ECL;
In order to study directly the role of eIF4E in cell transformation, a series of biotinylated synthetic peptides (Peptides synthesised by Cyclacel) corresponding to the eIF4E interacting domain (binding motif) of human eIF4G, and wheat eIF4G and alanine substituted peptides thereof were synthesised (see FIG. 12a) and tested for their capacity to interact with ^35S-Met labelled in vitro translated human eIF4E (NB. Peptides BP1 and BP1 YLM-AAA were not biotinylated). Peptides were coupled to streptavidin coated agarose beads by a N-terminus linked biotin group and washed in PBS/0.2% Tween 3× before being incubated for 1 hour at +4° C. with in vitro translated human eIF4E. Beads were washed as above and boiled for 5 min. in SDS loading buffer before the peptide bound proteins were separated on a 10% SDS gel. The bands were visualised by autoradiography.

[2] = biological target: T1, eIF4E in MRC5 cell lysate (Homo sapiens, UniProt P06730); experiment: pull-down of eIF4E from MRC5 cell lysate; assay type: binding; details: 0.2 mM peptide, 200 μg MRC5 cell lysate, 1 h at 4° C.
T1 construct: endogenous in cells; host or cells: MRC5
T1 sequence (P06730 whole entry): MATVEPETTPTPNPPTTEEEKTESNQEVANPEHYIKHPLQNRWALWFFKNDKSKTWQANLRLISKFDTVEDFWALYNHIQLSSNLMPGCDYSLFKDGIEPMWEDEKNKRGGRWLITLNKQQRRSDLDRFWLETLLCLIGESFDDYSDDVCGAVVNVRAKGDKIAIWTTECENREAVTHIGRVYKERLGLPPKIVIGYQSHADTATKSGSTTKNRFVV
Protocol: as §1

[3] = tested on: HaCaT cells; experiment: cytotoxic or cytostatic effect on HaCaT cells; assay type: cell-based
[4] = tested on: MRC5 cells; experiment: peptide-induced cell death (apoptosis) in MRC5 cells; assay type: cell-based
Description: FIG. 8 is a table illustrating the induction of apoptosis by eIF4G peptides in MRC5 cells;
FIG. 9 is a summary of the results of inhibition of eIF4G(413-424)-induced apoptosis;

[5] = tested on: MRC5 cells; experiment: cell survival by MTT assay; assay type: cell-based; details: various concentrations, 72 h serum-starved MRC5 cells, FIGS. 13b,c,d
Protocol: FIGS. 13a–d are graphs showing cell survival (% of control, untreated cells) as measured by MTT assay. a) Lane 1: 10 μM BP2 peptide added to serum-fed cells or Lane 2, 3, 4: 10 μM BP2 peptide added to 24 h, 48 h or 72 h serum-starved cells respectively. Lane 5: 10 μM BP2 YLL-AAA added to 72 h serum starved cells. Lane 6: 72 h serum starved cells incubated in 10% serum for 1 h prior to addition to 10 μM BP2 peptide. Lane 7: 72 h serum starved cells incubated with 100 μg/ml cycloheximide followed by a 1 h incubation with 10% serum prior to the addition of 10 μM BP2 peptide. In all cases the cells were then further incubated for 1 h in 0.1 mg/ml MTT. Cells were lysed in DMSO and absorbance was measured at […]. b–d) Varying concentrations of peptides were added to 72 h serum starved MRC5 cells. After 30 min incubation the cells were then further incubated for 1 h in 0.1 mg/ml MTT. Cells were lysed in DMSO and absorbance was measured at 570 nm.

[6] = tested on: MRC5 cells; experiment: TUNEL analysis; assay type: cell-based; details: 10 μM peptide, 10 min
Protocol: (§2) MRC5 cells were incubated with 10 μM Hu4G peptide for 10 min. Cells visualised with fluorescein by fluorescence microscopy. […] 80% of cells incubated with the 10 μM Hu4G peptide fluoresced positive. d) Images of DAPI-stained MRC5 cells incubated with either 20 μM Hu4G or Hu4G YLL-AAA peptide for 40 min. Arrows indicate the position of a cell with either a condensed nucleus (top right) or a nucleus with a punctate appearance (bottom left). e) Visualisation of effects on the MPT. Serum-starved MRC5 cells were loaded with 0.1 μM JCl for 30 min prior to addition of 10 μM peptide. Changes in mitochondrial permeability were viewed by laser scanning confocal microscopy (krypton/argon laser) using identical setting. Green channel: excitation 488 nm/emission 522 nm. Red channel: excitation 568 nm/emission 585 nm. Channels were collected separately to avoid cross over. Images were taken 5 min after addition of the peptide;

[7] = tested on: MRC5 cells; experiment: FACS analysis of propidium iodide-stained cells; assay type: cell-based; details: 20 μM, 40 min
[8] = tested on: MRC5 cells; experiment: DAPI staining of cell nuclei; assay type: cell-based; details: 20 μM, 40 min
Protocol: as §2

[9] = tested on: MRC5 cells; experiment: mitochondrial permeability transition (JC1 dye, confocal microscopy); assay type: cell-based; details: 10 μM peptide, serum-starved MRC5 cells
Protocol: as §2
An early event considered decisive in apoptosis is the opening of the mitochondrial permeability transition (MPT) pore (20–22). To characterise further the eIF4E-binding peptide-induced cell death, the development of the MPT was investigated in living MRC5 cells loaded with the fluorescent dye, JC1 (21).

[10] = tested on: HaCaT, Swiss 3T3, RATI and IIeLa cells; experiment: cell survival in other cell-types; assay type: cell-based; details: results not shown
[11] = tested on: MRC5 cells; experiment: [35S]methionine incorporation into protein; assay type: cell-based; details: serum deprived cells, 30 minutes
Protocol: (§3) FIG. 16 illustrates that eIF4E binding peptide cell death is not through eIF4E's known role in mRNA translation. a) 72 h serum-starved MRC5 cells were treated with 100 μg/ml and 10 μg/ml cylcoheximide, 1 μg/ml and 0.1 μg/ml pactamycine or 10 μM Hu4G peptide for 2 h prior to a MTT assay. Cells were pulsed labelled with [^35S]methionine for 30 min after addition of the inhibitors/peptide. The incorporation of [^35S]methionine into protein was determined following hot trichloroacetic acid precipitation. b) 72 h serum-starved MRC5 cells were treated with 100 μg/ml cycloheximide (Chx), 1 μg/ml pactamycine (Pact) or c) MRC5 cells which had been starved of serum for 72 h were pre-incubated with 100 μg/ml cycloheximide or 1 μg/ml pactamycine for 30 min prior to addition of 10 μM Hu4G peptide. Cells were then further incubated for 1.5 h prior to a MTT assay. Results from three independent experiments (+/− SEM).
Serum deprived cells were treated with the general translation inhibitors Cyclohexamide or Pactamycin at indicated concentrations or the H4G peptide in the presence of 35S-Met for 30 minutes (see FIGS. 16a,b). Cells were lysed and the amount of translation was estimated by counting incorporated 35S-Met in precipitated protein fractions.

[12] = tested on: MRC5 cells; experiment: MTT assay with general translation inhibitors (FIG. 16); assay type: cell-based; details: serum deprived cells
Protocol: as §3

Chain of recombinant human eIF4E (P06730 whole entry): as above

Substance: Hu4G: biotinylated, penetratin-linked peptide of the eIF4E binding motif of human eIF4G (KKRYDREFLLGFRQIKIWFQNRRMKWKK; also: biotinylated)
- binding to recombinant human eIF4E in vitro [1]: found to bind recombinant human eIF4E in vitro
- binding of eIF4E in cell lysates [2]: bound eIF4E in cell lysates
- time until cells began to die after peptide treatment ([3]; 60 h serum starved cells): ≤ 15 min
- effect with short treatment ([3]; HaCaT cells, <24 h with 20 μM): no effect observed
- cytotoxic or cytostatic effect ([3]; selected cell lines): exhibited a cytotoxic or cytostatic effect on selected cell lines
- effect of limited serum treatment on sensitivity to the peptide ([4]; FIG. 9): Resistance
- cell death (possibly by apoptosis) ([4]; serum starved cell lines, FIG. 8): caused rapid cell death
- cell death / cell viability [5]: rapid, dose-dependent, cell death
- cells fluoresced positive (TUNEL) [6]: 80%
- DNA profile [7]: shift in the DNA profile from G0/1 to sub G0/1
- nuclear condensation [8]: signs of nuclear condensation
- changes in JC1 fluorescence (MPT pore opening) [9]: rapid increase
- time to increase in green fluorescence with loss of orange fluorescence [9]: ≤ 5 min
- cell survival [10]: rapid cell death
- incorporation of 35S-Met (translation) [11]: do not incorporate 35S-Met
- cell killing [12]: they die
